Experimental data: patent US8637525B2, “Compounds for the reduction of beta-amyloid production” (Bristol-Myers Squibb Company, priority 2009, dated 2014)
Like-named read-outs stand apart in the source and are kept apart here.

Test system: Aβ1-42 production
Assay: Cellular assay for inhibition of Aβ1-42 production (H4 APP751 SWE clone 8.20)
Format: cell-based
Conditions: H4 APP751 SWE clone 8.20 cells, 19 h incubation
Summary of the method: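 H4 cells stably expressing Swedish-mutant APP751 incubated with compound 19 h at 37 °C, 5% CO2. Secreted Aβ42 detected by HTRF with Aβ42 neoepitope antibody 565 (0.8 ng/well) and N-terminal 26D6 (75 ng/well), overnight at 4 °C. IC50 obtained by curve fitting.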

[1] = 19 h, read-out: Activity Rating (Aβ42 cellular IC50), numeric value
[2] = class symbols, read-out: Activity Rating (Aβ42 cellular IC50)
[3] = 19 h, class symbols, read-out: Activity Rating (Aβ42 cellular IC50)

IC50 [2]	other results	SMILES
	IC50 [1]: 59 nM	COc1cc(Nc2nc3c(c(N4CCCC4C)n2)CCC3c2ccc(F)cc2)ccc1-n1cnc(Cl)c1 (single isomer, unassigned) [Example 19B, N-(4-(4-chloro-1H-imidazol-1-yl)-3-methoxyphenyl)-7-(4-fluorophenyl)-4-(2-methylpyrrolidin-1-yl)-6,7-dihydro-5H-cyclopenta[d]pyrimidin-2-amine]
1.5 to 9.9 nM		COc1cc(Nc2nc3c(c(N4CCCC4C)n2)CCC3c2ccc(F)cc2)ccc1-n1cnc(Cl)c1 (single isomer, unassigned) [Example 20, N-(4-(4-chloro-1H-imidazol-1-yl)-3-methoxyphenyl)-7-(4-fluorophenyl)-4-(2-methylpyrrolidin-1-yl)-6,7-dihydro-5H-cyclopenta[d]pyrimidin-2-amine]
1.5 to 9.9 nM		COc1cc(Nc2nc3c(c(N4CCCC4C)n2)CCC3c2ccc(F)cc2)ccc1-n1cnc(Cl)c1 (single isomer, unassigned) [Example 20A, N-(4-(4-chloro-1H-imidazol-1-yl)-3-methoxyphenyl)-7-(4-fluorophenyl)-4-(2-methylpyrrolidin-1-yl)-6,7-dihydro-5H-cyclopenta[d]pyrimidin-2-amine]
10 to 100 nM		COc1cc(Nc2nc3c(c(N4CCCC4C)n2)CCC3c2ccc(F)cc2)ccc1-n1cnc(Cl)c1 (single isomer, unassigned) [Example 20B, N-(4-(4-chloro-1H-imidazol-1-yl)-3-methoxyphenyl)-7-(4-fluorophenyl)-4-(2-methylpyrrolidin-1-yl)-6,7-dihydro-5H-cyclopenta[d]pyrimidin-2-amine]
10 to 100 nM		COc1cc(Nc2nc3c(c(N4C[C@@H](C)O[C@@H](C)C4)n2)CCC3c2ccc(F)cc2)ccc1-n1cnc(Cl)c1 (single isomer, unassigned) [Example 21A]
100 to 1000 nM		COc1cc(Nc2nc3c(c(N4C[C@@H](C)O[C@@H](C)C4)n2)CCC3c2ccc(F)cc2)ccc1-n1cnc(Cl)c1 (single isomer, unassigned) [Example 21B]
10 to 100 nM		CCC1CCCN1c1nc(Nc2ccc(-n3cnc(Cl)c3)c(OC)c2)nc2c1CCC2c1ccc(F)cc1 (single isomer, unassigned) [Example 23, N-(4-(4-chloro-1H-imidazol-1-yl)-3-methoxyphenyl)-4-(2-ethylpyrrolidin-1-yl)-7-(4-fluorophenyl)-6,7-dihydro-5H-cyclopenta[d]pyrimidin-2-amine]
10 to 100 nM		CCC1CCCN1c1nc(Nc2ccc(-n3cnc(Cl)c3)c(OC)c2)nc2c1CCC2c1ccc(F)cc1 (single isomer, unassigned) [Example 23A, N-(4-(4-chloro-1H-imidazol-1-yl)-3-methoxyphenyl)-4-(2-ethylpyrrolidin-1-yl)-7-(4-fluorophenyl)-6,7-dihydro-5H-cyclopenta[d]pyrimidin-2-amine]
100 to 1000 nM		CCC1CCCN1c1nc(Nc2ccc(-n3cnc(Cl)c3)c(OC)c2)nc2c1CCC2c1ccc(F)cc1 (single isomer, unassigned) [Example 23B, N-(4-(4-chloro-1H-imidazol-1-yl)-3-methoxyphenyl)-4-(2-ethylpyrrolidin-1-yl)-7-(4-fluorophenyl)-6,7-dihydro-5H-cyclopenta[d]pyrimidin-2-amine]
10 to 100 nM		CCC1CCCN1c1nc(Nc2ccc(-n3cnc(Cl)c3)c(OC)c2)nc2c1CCC2c1ccc(F)cc1 (single isomer, unassigned) [Example 24, N-(4-(4-chloro-1H-imidazol-1-yl)-3-methoxyphenyl)-4-(2-ethylpyrrolidin-1-yl)-7-(4-fluorophenyl)-6,7-dihydro-5H-cyclopenta[d]pyrimidin-2-amine]
10 to 100 nM		CCC1CCCN1c1nc(Nc2ccc(-n3cnc(Cl)c3)c(OC)c2)nc2c1CCC2c1ccc(F)cc1 (single isomer, unassigned) [Example 24A, N-(4-(4-chloro-1H-imidazol-1-yl)-3-methoxyphenyl)-4-(2-ethylpyrrolidin-1-yl)-7-(4-fluorophenyl)-6,7-dihydro-5H-cyclopenta[d]pyrimidin-2-amine]
	IC50 [1]: 200 nM	CCC1CCCN1c1nc(Nc2ccc(-n3cnc(Cl)c3)c(OC)c2)nc2c1CCC2c1ccc(F)cc1 (single isomer, unassigned) [Example 24B, N-(4-(4-chloro-1H-imidazol-1-yl)-3-methoxyphenyl)-4-(2-ethylpyrrolidin-1-yl)-7-(4-fluorophenyl)-6,7-dihydro-5H-cyclopenta[d]pyrimidin-2-amine]
	IC50 [3]: 10 to 100 nM	CNc1nc(Nc2ccc(-n3ncnc3C)c(F)c2)nc2c1CCC2c1ccc(F)cc1 (single isomer, unassigned) [Example 26A, N^2-(3-fluoro-4-(5-methyl-1H-1,2,4-triazol-1-yl)phenyl)-7-(4-fluorophenyl)-N^4-methyl-6,7-dihydro-5H-cyclopenta[d]pyrimidine-2,4-diamine]
10 to 100 nM		CNc1nc(Nc2ccc(-n3ncnc3C)c(F)c2)nc2c1CCC2c1ccc(F)cc1 (single isomer, unassigned) [Example 26B, N^2-(3-fluoro-4-(5-methyl-1H-1,2,4-triazol-1-yl)phenyl)-7-(4-fluorophenyl)-N^4-methyl-6,7-dihydro-5H-cyclopenta[d]pyrimidine-2,4-diamine]
	IC50 [3]: 10 to 100 nM	COc1cc(Nc2nc3c(c(N4CCC(O)(C(F)(F)F)C4)n2)CCC3c2ccc(F)cc2)ccc1-n1cnc(Cl)c1 (single isomer, unassigned) [Example 27, 1-(2-(4-(4-chloro-1H-imidazol-1-yl)-3-methoxyphenylamino)-7-(4-fluorophenyl)-6,7-dihydro-5H-cyclopenta[d]pyrimidin-4-yl)-3-(trifluoromethyl)pyrrolidin-3-ol]
10 to 100 nM		COc1cc(Nc2nc3c(c(N4CCC(O)(C(F)(F)F)C4)n2)CCC3c2ccc(F)cc2)ccc1-n1cnc(Cl)c1 (single isomer, unassigned) [Example 28, 1-(2-(4-(4-chloro-1H-imidazol-1-yl)-3-methoxyphenylamino)-7-(4-fluorophenyl)-6,7-dihydro-5H-cyclopenta[d]pyrimidin-4-yl)-3-(trifluoromethyl)pyrrolidin-3-ol]
10 to 100 nM		COc1cc(Nc2nc3c(c(N4CCC(O)(C(F)(F)F)C4)n2)CCC3c2ccc(F)cc2)ccc1-n1cnc(Cl)c1 (single isomer, unassigned) [Example 28A, 1-(2-(4-(4-chloro-1H-imidazol-1-yl)-3-methoxyphenylamino)-7-(4-fluorophenyl)-6,7-dihydro-5H-cyclopenta[d]pyrimidin-4-yl)-3-(trifluoromethyl)pyrrolidin-3-ol]
	IC50 [3]: 10 to 100 nM	COc1cc(Nc2nc3c(c(N4CCC(N(C)C)C4)n2)CCC3c2ccc(F)cc2)ccc1-n1cnc(Cl)c1 (single isomer, unassigned) [Example 29A, N-(4-(4-chloro-1H-imidazol-1-yl)-3-methoxyphenyl)-4-(3-(dimethylamino)pyrrolidin-1-yl)-7-(4-fluorophenyl)-6,7-dihydro-5H-cyclopenta[d]pyrimidin-2-amine]
10 to 100 nM		COc1cc(Nc2nc3c(c(N4CCC(N(C)C)C4)n2)CCC3c2ccc(F)cc2)ccc1-n1cnc(Cl)c1 (single isomer, unassigned) [Example 29B, N-(4-(4-chloro-1H-imidazol-1-yl)-3-methoxyphenyl)-4-(3-(dimethylamino)pyrrolidin-1-yl)-7-(4-fluorophenyl)-6,7-dihydro-5H-cyclopenta[d]pyrimidin-2-amine]
	IC50 [3]: 10 to 100 nM	COc1cc(Nc2nc3c(c(N4CCN(C)CC4)n2)CCC3c2ccc(F)cc2)ccc1-n1cnc(Cl)c1 (single isomer, unassigned) [Example 30A, N-(4-(4-chloro-1H-imidazol-1-yl)-3-methoxyphenyl)-7-(4-fluorophenyl)-4-(4-methylpiperazin-1-yl)-6,7-dihydro-5H-cyclopenta[d]pyrimidin-2-amine]
	IC50 [1]: 230 nM	COc1cc(Nc2nc3c(c(N4CCN(C)CC4)n2)CCC3c2ccc(F)cc2)ccc1-n1cnc(Cl)c1 (single isomer, unassigned) [Example 30B, N-(4-(4-chloro-1H-imidazol-1-yl)-3-methoxyphenyl)-7-(4-fluorophenyl)-4-(4-methylpiperazin-1-yl)-6,7-dihydro-5H-cyclopenta[d]pyrimidin-2-amine]
	IC50 [3]: 10 to 100 nM	COc1cc(Nc2nc3c(c(N4CC[C@H](F)C4)n2)CCC3c2ccc(F)cc2)ccc1-n1cnc(Cl)c1 (single isomer, unassigned) [Example 36]
	IC50 [3]: 1.5 to 9.9 nM	COc1cc(Nc2nc3c(c(N4CC[C@H](F)C4)n2)CCC3c2ccc(F)cc2)ccc1-n1cnc(Cl)c1 (single isomer, unassigned) [Example 37]
	IC50 [1]: 12 nM	COc1cc(Nc2nc3c(c(N4CC[C@@H](F)C4)n2)CCC3c2ccc(F)cc2)ccc1-n1cnc(Cl)c1 (single isomer, unassigned) [Example 38A]
	IC50 [3]: 1.5 to 9.9 nM	CNc1nc(Nc2ccc(-n3cnc(C)n3)c(OC)c2)nc2c1CCC2c1ccc(F)cc1 (single isomer, unassigned) [Example 44A, 7-(4-fluorophenyl)-N2-(3-methoxy-4-(3-methyl-1H-1,2,4-triazol-1-yl)phenyl)-N4-methyl-6,7-dihydro-5H-cyclopenta[d]pyrimidine-2,4-diamine]
10 to 100 nM		COCC(Nc1nc(Nc2ccc(-n3cnc(Cl)c3)c(OC)c2)nc2c1CCC2c1ccc(F)cc1)C1CC1 (single isomer, unassigned) [Example 45A, N2-(4-(4-chloro-1H-imidazol-1-yl)-3-methoxyphenyl)-N4-(1-cyclopropyl-2-methoxyethyl)-7-(4-fluorophenyl)-6,7-dihydro-5H-cyclopenta[d]pyrimidine-2,4-diamine]
10 to 100 nM		COCC(Nc1nc(Nc2ccc(-n3cnc(Cl)c3)c(OC)c2)nc2c1CCC2c1ccc(F)cc1)C1CC1 (single isomer, unassigned) [Example 45C, N2-(4-(4-chloro-1H-imidazol-1-yl)-3-methoxyphenyl)-N4-(1-cyclopropyl-2-methoxyethyl)-7-(4-fluorophenyl)-6,7-dihydro-5H-cyclopenta[d]pyrimidine-2,4-diamine]
